Several values for one entry are separate records, joined by “and”; a condition that tells them apart may be missing. Identical values can stand only once.
Legend:
[1] = oral; cited from earlier work
UMPS^KO/KO Nalm6 cells = assay: Growth curves of Nalm6 cells with uridine; format: cell-based, human; conditions: for Cell counts, Day 0 / Cell counts, Day 1 / Cell counts, Day 2 / Cell counts, Day 3 / Cell counts, Day 4 / Cell counts, Day 5 / Cell counts, Day 6 / Cell counts, Day 7: UMPS^KO/KO
Experimental: (§1) The same experiment was performed with Nalm6 cells and a similar dependency on the uridine concentration in the culture was observed that was not visible for cells with intact UMPS. Table 25 provides data of growth curves of UMPS^KO/KO Nalm6 cells cultured with different uridine concentrations. No difference was observed between the groups receiving uridine supplement treatment and those not for wild-type cells.

UMPS-WT Nalm6 cells = assay: Growth curves of Nalm6 cells with uridine; format: cell-based, human; conditions: for Cell counts, Day 0 / Cell counts, Day 1 / Cell counts, Day 2 / Cell counts, Day 3 / Cell counts, Day 4 / Cell counts, Day 5 / Cell counts, Day 6 / Cell counts, Day 7: UMPS-WT
Experimental: as §1

Mock T cells = assay: 5-FOA selection, cell counts after 4 days; format: cell-based, human
Experimental: (§2) 5-FOA selects for uracil auxotrophic cells in other organisms (e.g. Boeke et al. 1984, Mol. Gen. Genet. 197(2):345-6), which is hereby incorporated by reference in its entirety). To investigate the potential utility of 5-FOA for the selection of uracil auxotrophs among human cells, the UMPS gene was targeted in human T cells by Cas9-gRNA complex electroporation followed by recovery (as shown in Example 2) followed by an assay of resistance to 5-FOA treatment (FIG. 3A). Cells were grown in 5-FOA and a variety of combinations of serum and uracil sources for 4 days before cell counting was performed.

UMPS-7 targeted T cells = assay: 5-FOA selection, cell counts after 4 days; format: cell-based, human
Experimental: as §2

O=c1ccn([C@@H]2O[C@H](CO)[C@@H](O)[C@H]2O)c(=O)[nH]1 [Uridine]
absorption and breakdown [1]: poorly absorbed in the gastrointestinal tract and broken down in the liver
Cell counts, Day 0 (UMPS^KO/KO Nalm6 cells; 2.5 μg/ml uridine): 20121 and 29155 and 28090
Cell counts, Day 1 (UMPS^KO/KO Nalm6 cells; 2.5 μg/ml uridine): 42194 and 38023 and 40650
Cell counts, Day 2 (UMPS^KO/KO Nalm6 cells; 2.5 μg/ml uridine): 69808 and 88300 and 87146
Cell counts, Day 3 (UMPS^KO/KO Nalm6 cells; 2.5 μg/ml uridine): 70287 and 70547 and 78663
Cell counts, Day 4 (UMPS^KO/KO Nalm6 cells; 2.5 μg/ml uridine): 80625 and 81737 and 79012
Cell counts, Day 5 (UMPS^KO/KO Nalm6 cells; 2.5 μg/ml uridine): 193482 and 188952 and 193913
Cell counts, Day 6 (UMPS^KO/KO Nalm6 cells; 2.5 μg/ml uridine): 380782 and 383866 and 377748
Cell counts, Day 7 (UMPS^KO/KO Nalm6 cells; 2.5 μg/ml uridine): 755497 and 796763 and 793429
Cell counts, Day 0 (UMPS^KO/KO Nalm6 cells; 25 μg/ml uridine): 14984 and 18952 and 14400
Cell counts, Day 1 (UMPS^KO/KO Nalm6 cells; 25 μg/ml uridine): 21277 and 25189 and 19688
Cell counts, Day 2 (UMPS^KO/KO Nalm6 cells; 25 μg/ml uridine): 69085 and 68027 and 71301
Cell counts, Day 3 (UMPS^KO/KO Nalm6 cells; 25 μg/ml uridine): 142944 and 176018 and 189125
Cell counts, Day 4 (UMPS^KO/KO Nalm6 cells; 25 μg/ml uridine): 388585 and 324708 and 395062
Cell counts, Day 5 (UMPS^KO/KO Nalm6 cells; 25 μg/ml uridine): 1624178 and 1360329
Cell counts, Day 6 (UMPS^KO/KO Nalm6 cells; 25 μg/ml uridine): 3646724 and 3386243 and 3792593
Cell counts, Day 7 (UMPS^KO/KO Nalm6 cells; 25 μg/ml uridine): 7293447 and 5746352 and 6538953
Cell counts, Day 0 (UMPS^KO/KO Nalm6 cells; 250 μg/ml uridine): 20704 and 24510 and 29762
Cell counts, Day 1 (UMPS^KO/KO Nalm6 cells; 250 μg/ml uridine): 37175 and 35461 and 30769
Cell counts, Day 2 (UMPS^KO/KO Nalm6 cells; 250 μg/ml uridine): 101781 and 106667 and 112045
Cell counts, Day 3 (UMPS^KO/KO Nalm6 cells; 250 μg/ml uridine): 210805 and 265340 and 257649
Cell counts, Day 4 (UMPS^KO/KO Nalm6 cells; 250 μg/ml uridine): 551249 and 564374
Cell counts, Day 5 (UMPS^KO/KO Nalm6 cells; 250 μg/ml uridine): 2072099 and 2343280 and 1844675
Cell counts, Day 6 (UMPS^KO/KO Nalm6 cells; 250 μg/ml uridine): 3792593 and 4514991 and 4122383
Cell counts, Day 7 (UMPS^KO/KO Nalm6 cells; 250 μg/ml uridine): 7585185 and 6320988 and 7901235
growth (UMPS^KO/KO Nalm6 cells; groups supplemented with uridine, especially 25 and 250 μg/ml): Significantly greater growth
Cell counts, Day 0 (UMPS-WT Nalm6 cells; 2.5 ug/ml uridine): 20052 and 19661 and 21142
Cell counts, Day 1 (UMPS-WT Nalm6 cells; 2.5 ug/ml uridine): 35088 and 34130 and 28986
Cell counts, Day 2 (UMPS-WT Nalm6 cells; 2.5 ug/ml uridine): 67340 and 38314 and 62598
Cell counts, Day 3 (UMPS-WT Nalm6 cells; 2.5 ug/ml uridine): 156019 and 153257 and 137812
Cell counts, Day 4 (UMPS-WT Nalm6 cells; 2.5 ug/ml uridine): 244368 and 225750 and 338624
Cell counts, Day 5 (UMPS-WT Nalm6 cells; 2.5 ug/ml uridine): 923391 and 1119256 and 1148582
Cell counts, Day 6 (UMPS-WT Nalm6 cells; 2.5 ug/ml uridine): 2017336 and 3269476
Cell counts, Day 7 (UMPS-WT Nalm6 cells; 2.5 ug/ml uridine): 3869992 and 6117085 and 6538953
Cell counts, Day 0 (UMPS-WT Nalm6 cells; 25 μg/ml uridine): 27548 and 19505 and 36496
Cell counts, Day 1 (UMPS-WT Nalm6 cells; 25 μg/ml uridine): 31847 and 39683 and 40000
Cell counts, Day 2 (UMPS-WT Nalm6 cells; 25 μg/ml uridine): 70922 and 70175 and 68027
Cell counts, Day 3 (UMPS-WT Nalm6 cells; 25 μg/ml uridine): 214190 and 194185 and 174292
Cell counts, Day 4 (UMPS-WT Nalm6 cells; 25 μg/ml uridine): 447240 and 311891 and 376249
Cell counts, Day 5 (UMPS-WT Nalm6 cells; 25 μg/ml uridine): 1413856 and 1173622 and 1216000
Cell counts, Day 6 (UMPS-WT Nalm6 cells; 25 μg/ml uridine): 3792593 and 2708995
Cell counts, Day 7 (UMPS-WT Nalm6 cells; 25 μg/ml uridine): 6320988 and 5746352 and 7585185
Cell counts, Day 0 (UMPS-WT Nalm6 cells; 250 μg/ml uridine): 17980 and 24390
Cell counts, Day 1 (UMPS-WT Nalm6 cells; 250 μg/ml uridine): 33784 and 40000
Cell counts, Day 2 (UMPS-WT Nalm6 cells; 250 μg/ml uridine): 59524 and 58737
Cell counts, Day 3 (UMPS-WT Nalm6 cells; 250 μg/ml uridine): 167715 and 160160
Cell counts, Day 4 (UMPS-WT Nalm6 cells; 250 μg/ml uridine): 303894 and 213547
Cell counts, Day 5 (UMPS-WT Nalm6 cells; 250 μg/ml uridine): 1163678 and 1115507
Cell counts, Day 6 (UMPS-WT Nalm6 cells; 250 μg/ml uridine): 3511660 and 3058542
Cell counts, Day 7 (UMPS-WT Nalm6 cells; 250 μg/ml uridine): 7293447
growth with vs without uridine supplement (UMPS-WT Nalm6 cells; wild-type cells): No difference
Average of cells per volume unit (Mock T cells; Mock, 4 days in 5-FOA without serum, with substrate): 53052.43 cells per volume unit
survival in 5-FOA compared to control (Mock T cells; mock treated cells): improved the survival
survival in 5-FOA compared to control (UMPS-7 targeted T cells; UMPS targeted cells): improved the survival
Average of cells per volume unit (UMPS-7 targeted T cells; UMPS-7, 4 days in 5-FOA without serum, with substrate): 77755.72 cells per volume unit
